Results on 1 compound are retold here after US11896678B2, “Compositions and methods for treatment of peroxisome proliferator-activated receptor gamma (PPARG) activated cancer” (THE BROAD INSTITUTE, INC., priority 2017, dated 2024).

One assay concerns the target T1, PPARG (Homo sapiens, UniProt P37231).
T1 construct: endogenous in cells; host or cells: RT112/84 bladder cancer cells (FABP4-NLucP knock-in clone)
T1 sequence (P37231 1-477 isoform P37231-2): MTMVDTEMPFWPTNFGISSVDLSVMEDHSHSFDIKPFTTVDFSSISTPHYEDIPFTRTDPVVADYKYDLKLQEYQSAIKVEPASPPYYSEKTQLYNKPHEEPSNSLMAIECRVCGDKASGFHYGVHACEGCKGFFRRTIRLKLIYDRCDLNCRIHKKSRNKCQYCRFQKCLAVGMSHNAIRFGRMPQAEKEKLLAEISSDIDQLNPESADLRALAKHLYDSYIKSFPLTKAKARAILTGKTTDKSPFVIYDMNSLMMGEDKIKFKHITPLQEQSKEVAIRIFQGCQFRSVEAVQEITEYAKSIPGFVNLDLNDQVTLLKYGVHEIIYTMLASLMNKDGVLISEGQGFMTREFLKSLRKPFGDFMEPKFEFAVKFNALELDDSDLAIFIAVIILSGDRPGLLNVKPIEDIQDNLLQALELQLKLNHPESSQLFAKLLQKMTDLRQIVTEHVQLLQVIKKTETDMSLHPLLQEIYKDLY
Nature of the assay: RT112/84 FABP4-NLucP reporter gene assay, antagonist mode with rosiglitazone. Type of assay: cell-based. The note with it: in the presence of rosiglitazone. The procedure:
RT112-FABP4-NLucP Reporter Gene Assay: Reporter cell line was generated by engineering NanoLuc gene into the 3′ UTR of FABP4 in RT112/84 cells using CRISPR/Cas9 guided genome engineering. Single cell clones were generated and the clone with the widest dynamic range selected for use. Assays were performed by seeding 384-well plates with ˜10,000 cells per well in MEMalpha containing 10% FBS and dosing compounds at indicated concentration using HP D300 digital dispenser (HP/Tecan). 18-24 hours after dosing with compound, cells were assayed using NanoGlo Luciferase Assay Reagent (Promega Madison, WI) and plates were read using EnVision Multilabel Reader (PerkinElmer Waltham, MA).

The subject of a further assay is FABP4 expression. Nature of the assay: Immunoblot of FABP4 in bladder cancer cell lines. In kind it is cell-based, human. Conditions: panel of bladder cancer cell lines. Here is the method: Western Blot Analysis: Western blots were performed using standard protocols with semi-dry transfer Trans-Blot® SD (Bio-Rad Hercules, CA), Li-Cor Odyssey Blocking buffer, and imaging with LiCor Odyssey Imaging System (LI-COR Lincoln, NE). Briefly, cells were grown in 6-well plates and harvested using Complete Lysis-M with protease and phosphatase inhibitors (Roche Applied Science). Western blot analyses were performed using standard protocols with semi-dry transfer Trans-Blot SD (Bio-Rad), LI-COR Odyssey Blocking buffer, and imaging with LI-COR Odyssey Imaging System (LI-COR). The anti-PPARG C26H12, anti-PPARG 81B8, anti-FABP4 D25B3, and anti-CEACAM5 CB30 antibodies were obtained from Cell Signaling Technology. The anti-ACSL5 ab57210 and anti-HMCGS2 EPR8642 antibodies were obtained from Abcam. The anti-VCL (vinculin) V9264 antibody was obtained from Sigma-Aldrich. All primary antibodies were tested at 1:1,000 dilutions, with the exception of anti-VCL, which was tested at a 1:5,000 dilution. Secondary goat anti-mouse 926-68020, and goat-anti-rabbit 926-32211 antibodies were obtained from LI-COR Biosciences and used at 1:15,000 dilutions.

For assay [1], the system named is PPARG target gene expression in UM-UC-9 cells. The assay can be described thus: RNA sequencing of UM-UC-9 cells after 7 days dosing. Type of assay: cell-based, human. The note with it: 500 nmol/L. The procedure: Next, the effects of long-term dosing on the transcriptional profile of the PPARG-amplified cell line, UMUC-9, were evaluated. Briefly, UM-UC-9 cells were treated for 7 days with various PPARG modulators dosed at 500 nmol/L and gene expression was analyzed using RNA sequencing. […] Genes that were more abundantly expressed upon treatment with inverse-agonists included ALPP, SPINK4, and ALDH1A3 (FIG. 5). […] In summary, the in vitro pharmacological properties of known PPARG modulators have been characterized and two distinct chemotypes with bona-fide inverse-agonist activity in PPARG-activated bladder cancer cells were identified.
RNAseq analysis: RNA was isolated using RNEasy (Qiagen) and an RNAseq library was prepared using NEBNext Ultra Directional RNA Library Prep Kit for Illumina and NEBNext Multiplex Oligos for Illumina (New England BioLabs). RNAseq sequencing was performed using an Illumina MiSeq instrument according to the manufacturers protocol. Sequence data was analyzed using Firehose (Broad Institute, Cambridge MA) to map transcripts and calculate RPKM (SW780 cDNA expression) or TPM (UM-UC-9).
For UM-UC-9 RNAseq experiment, the resulting reads were used to calculate transcript abundance in units of TPM (transcripts per million) (18), which were then adjusted using TMM normalization (19) for comparison. […]

The test system of assay [2] is PPARG-activated pancreatic and colorectal cancer cell lines. The assay can be described thus: Kinetic proliferation assay in pancreatic and colorectal cancer cell lines. Conditions: 500 nM. In kind it is cell-based. The source says:
To enable cell-counting, cell lines were transduced with a lentiviral vector encoding nuclear-targeted GFP (TagGFP2-H2B), and stable pools generated following selection for puromycin-resistance. Cell lines were maintained for at least 7 days following selection prior to expansion and seeding into 96-well plates for further analysis. For kinetic proliferation assays, 96-well plates were imaged in phase-contrast and green fluorescence mode every two hours using IncuCyte Zoom (Essen BioScience, Ann Arbor MI). Using IncuCyte software, the number of fluorescent nuclei were counted to monitor quantitative changes in cell number over time. Media and compounds were replaced approximately every 3-4 days.
DMSO treatment was also included as a vehicle control.

Assay [3] concerns the target T2, PPARG ligand-binding domain - TRAP220/MED1 coactivator peptide (Homo sapiens, UniProt P37231).
T2 construct: purchased ThermoFisher Scientific
T2 sequence (P37231 238-503 limits assumed): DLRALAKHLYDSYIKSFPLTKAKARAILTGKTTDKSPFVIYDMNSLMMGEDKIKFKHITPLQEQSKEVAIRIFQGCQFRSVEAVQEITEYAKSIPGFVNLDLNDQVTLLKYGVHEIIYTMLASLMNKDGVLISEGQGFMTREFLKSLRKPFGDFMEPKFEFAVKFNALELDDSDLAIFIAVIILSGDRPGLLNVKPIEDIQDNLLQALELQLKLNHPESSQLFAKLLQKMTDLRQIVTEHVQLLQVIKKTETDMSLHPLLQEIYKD
Nature of the assay: TR-FRET coactivator assay, TRAP220/MED1 peptide. In kind it is biochemical.

The target of assay [4] is T3, PPARG ligand-binding domain - SMRT/NCOR2 corepressor peptide (Homo sapiens, UniProt P37231).
T3 construct: purchased ThermoFisher Scientific
T3 sequence (P37231 238-503 limits assumed): T2 sequence (P37231 238-503 limits assumed)
Nature of the assay: TR-FRET corepressor assay, SMRT/NCOR2 peptide. In kind it is biochemical. The procedure:
To evaluate inverse-agonism, a TR-FRET PPARG co-repressor assay (ThermoFisher) that measures recruitment of a fluorescent NCOR1 or NCOR2 corepressor peptide to the PPARG ligand-binding domain was used (ThermoFisher).
To determine effects on interactions between PPARG and coregulators, PPARG modulators were tested in two TR-FRET biochemical interaction assays for agonism and inverse-agonism. Agonism was quantitated using a coactivator assay, which measured the interaction between the PPARG ligand-binding domain and a fluorescently-labeled peptide from TRAP220/MED1. […] To evaluate inverse-agonism biochemically, ligand-dependent interactions were measured between PPARG ligand-binding domain and corepressor peptides from NCoR/NCOR1 and SMRT/NCOR2.

With `O=C(Nc1ccccc1)c1cc([N+](=O)[O-])ccc1Cl` [GW9662], the “effect on agonist-induced signal” value at PPARG is given as “decreased the agonist-induced signal back to the original baseline”. Besides, the “expression of FABP4” value in the assay with FABP4 expression was “not”. Besides, in assay [1], the “hierarchical clustering of gene expression signatures” value is given as “cluster with vehicle-treated controls”. Moreover, in assay [2], the “sensitivity of cell lines” value was “not sensitive”. In addition, in assay [3], the “effect in coactivator assay” value was “minimal effect”. Besides, in assay [4], the increase in signal was 1.7 fold.
